Measured values published in patent US5403940A, “Vitamin D compound, method of preparing this compound and intermediate thereof” (Duphar International Research B.V., priority 1991, dated 1995).

Molecular target: T1, calf thymus intracellular vitamin D receptor (VDR) (Bos taurus, UniProt Q28037)
T1 construct: calf thymus intracellular vitamin D receptor (VDR); from tissue; host or cells: calf thymus
T1 sequence (Q28037 1-426): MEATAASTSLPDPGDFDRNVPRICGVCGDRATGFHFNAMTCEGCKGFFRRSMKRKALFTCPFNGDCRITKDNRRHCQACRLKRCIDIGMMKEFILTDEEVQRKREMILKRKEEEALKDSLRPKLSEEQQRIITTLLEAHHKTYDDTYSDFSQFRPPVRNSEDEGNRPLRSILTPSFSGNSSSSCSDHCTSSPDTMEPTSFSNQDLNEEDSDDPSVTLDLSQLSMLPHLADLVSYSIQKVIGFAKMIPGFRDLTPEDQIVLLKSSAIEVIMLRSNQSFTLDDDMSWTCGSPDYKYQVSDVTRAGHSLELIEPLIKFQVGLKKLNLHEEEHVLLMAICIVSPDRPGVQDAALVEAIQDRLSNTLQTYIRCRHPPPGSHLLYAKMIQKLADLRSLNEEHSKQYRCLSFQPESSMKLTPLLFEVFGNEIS
Assay: Affinity towards the calf thymus intracellular vitamin D receptor, replacement of 3H-calcitriol
Assay type: binding
Text: In this assay ^3 H-calcitriol (1α,25-dihydroxycholecalciferol), which is specifically bound to the VDR, is replaced by the tested compound.

IC50 (compound dissolved in ethanol, 10^-13 to 10^-7 M, 3H-calcitriol bound to VDR, read-out: IC50 value, i.e. 50% replacement of 3H-calcitriol): 0.25 nM | affinity to the VDR (conclusion drawn from the IC50): high affinity to the VDR
SMILES: C=C1/C(=C\C=C2/CCC[C@]3(CO)[C@@H]([C@H](C)CCCC(C)(C)O)CC[C@@H]23)C[C@@H](O)C[C@@H]1O [compound 46]
